Data taken from BindingDB's records for patent US12331033 (Disarm Therapeutics, 2025).

Target: T1, NAD(+) hydrolase SARM1 (Homo sapiens, UniProt Q6SZW1)
T1 sequence (Q6SZW1 whole entry): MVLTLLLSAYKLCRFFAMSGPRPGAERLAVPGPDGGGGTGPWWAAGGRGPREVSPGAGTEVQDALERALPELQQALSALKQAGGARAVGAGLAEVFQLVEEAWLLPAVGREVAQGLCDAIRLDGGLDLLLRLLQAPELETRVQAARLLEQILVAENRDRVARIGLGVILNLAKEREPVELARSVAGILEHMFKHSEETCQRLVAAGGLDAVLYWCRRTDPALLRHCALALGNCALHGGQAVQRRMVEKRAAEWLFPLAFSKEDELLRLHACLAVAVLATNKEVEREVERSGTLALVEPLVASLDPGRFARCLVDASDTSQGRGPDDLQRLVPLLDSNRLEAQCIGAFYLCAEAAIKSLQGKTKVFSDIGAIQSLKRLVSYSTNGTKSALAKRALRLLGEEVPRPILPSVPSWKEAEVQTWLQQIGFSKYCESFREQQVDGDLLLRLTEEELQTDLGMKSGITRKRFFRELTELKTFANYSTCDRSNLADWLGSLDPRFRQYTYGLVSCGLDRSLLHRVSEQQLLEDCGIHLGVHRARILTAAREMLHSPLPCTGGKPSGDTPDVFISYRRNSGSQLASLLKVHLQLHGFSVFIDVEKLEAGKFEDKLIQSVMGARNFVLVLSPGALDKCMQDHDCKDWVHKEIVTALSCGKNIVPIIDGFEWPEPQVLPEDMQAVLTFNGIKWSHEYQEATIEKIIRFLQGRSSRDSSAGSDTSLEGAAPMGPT
Experiment: ARM-SAM-TIR IC50 Assay
Procedure: The enzymatic assay was performed in a 384-well polypropylene plate in Dulbecco's PBS buffer in a final assay volume of 20 μL. ARM-SAM-TIR lysate with a final concentration of 5 μg/mL was pre-incubated with the respective compound at 1% DMSO final assay concentration over 2 h at room temperature. The reaction was initiated by addition of 5 μM final assay concentration of NAD+ as substrate. After a 2 hr room temperature incubation, the reaction was terminated with 40 μL of stop solution of 7.5% trichloroactetic acid in acetonitrile. The NAD+ and ADPR concentrations were analyzed by a RapidFire High Throughput Mass Spectrometry System (Agilent Technologies, Santa Clara, Calif.) using an API4000 triple quadrupole mass spectrometer (AB Sciex Framingham, Mass.).

Cc1c(-c2ccncc2)n[nH]c1NC(=O)COc1ccc(Cl)c(F)c1 [US12331033, Example 291]
IC50: < 5 µM
